Data on two molecules can be found in patent publication US10882866B1, “Spiro[3H-indole-3,2′-pyrrolidin]-2(1H)-one compounds and derivatives as MDM2-P53 inhibitors” (Boehringer Ingelheim International GmbH, priority 2015, dated 2021).

The test system of assay [1] is human acute myeloid leukemia (AML) xenograft models harboring p53 wild-type. The conditions noted are these: cited from earlier work.
Assay [2] has as its system human prostate tumor xenograft models harboring p53 wild-type. The conditions noted are these: cited from earlier work.
Assay [3] addresses GST-MDM2 protein (aa 23-117) / biotinylated p53 wt peptide (p53-MDM2 interaction) (Homo sapiens (Human), UniProt Q00987). Briefly: Mdm2-p53 Inhibition AlphaScreen. In kind it is binding. The conditions noted are these: 20 nM GST-MDM2 (aa 23-117), 20 nM biotinylated p53 wt peptide. How it is done:
Mdm2-p53 Inhibition AlphaScreen
15 μL of compound in 20% DMSO (serial pre-dilutions of compound are done in 100% DMSO) is pipetted to the wells of a white OptiPlate-96 (PerkinElmer). A mix consisting of 20 nM GST-MDM2 protein (aa 23-117) and 20 nM biotinylated p53 wt peptide (encompassing aa 16-27 of wt human p53, amino acid sequence […]-Ttds-Lys-Biotin, molecular weight 2132.56 g/mol) is prepared in assay buffer (50 mM Tris/HCl pH 7.2; 120 mM NaCl; 0.1% bovine serum albumin (BSA); 5 mM dithiothreitol (DTT); 1 mM ethylenediaminetetraacetic acid (EDTA); 0.01% Tween 20). 30 μL of the mix is added to the compound dilutions and incubated for 15 min at rt while gently shaking the plate at 300 rounds per minute (rpm). Subsequently, 15 μL of premixed AlphaLISA Glutathione Acceptor Beads and AlphaScreen Streptavidin Donor Beads from PerkinElmer (in assay buffer at a concentration of 10 μg/mL each) are added and the samples are incubated for 30 min at rt in the dark (shaking 300 rpm). Afterwards, the signal is measured in a PerkinElmer Envision HTS Multilabel Reader using the AlphaScreen protocol from PerkinElmer.
Each plate contains negative controls where biotinylated p53-peptide and GST-MDM2 are left out and replaced by assay buffer. Negative control values are entered as low basis value when using the software GraphPad Prism for calculations. […]
For orientation: Alpha assays give light when donor and acceptor beads are brought close together.

pIC50: −log10 of the molar value.

GST-MDM2 protein (aa 23-117) / biotinylated p53 wt peptide (p53-MDM2 interaction), sequence (Q00987 23-117): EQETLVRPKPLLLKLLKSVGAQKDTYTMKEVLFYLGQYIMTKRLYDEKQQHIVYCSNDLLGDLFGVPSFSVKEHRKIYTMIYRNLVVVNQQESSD

Consider `CCOc1cc(C(C)(C)C)ccc1C1=N[C@@](C)(c2ccc(Cl)cc2)[C@@](C)(c2ccc(Cl)cc2)N1C(=O)N1CCN(CCCS(C)(=O)=O)CC1` [RG7112], for which the “antiproliferative and proapoptotic activity” value in assay [1] is “antiproliferative and proapoptotic activity of RG7112 has been observed”; in assay [2], “antiproliferative and proapoptotic activity of RG7112 has been observed”.
The molecule `COc1cc2c(cc1C(N)=O)nc1n2CC[C@H]2[C@@H]1[C@H](c1cccc(Cl)c1F)[C@]1(C(=O)Nc3cc(Cl)ccc31)N2CC1CC1` [Ib-234] showed a negative-log IC50 (pIC50) in assay [3] of 8.70.

Usually pIC50 stands for the negative decadic logarithm of the IC50, by convention in mol/L. A lower pIC50 goes with a high IC50.
